Data reported in ChEMBL document CHEMBL1131280, “(2S,4S)-amino-4-(2,2-diphenylethyl)pentanedioic acid selective group 2 metabotropic glutamate receptor antagonist” (Bioorg Med Chem Lett, 1998).
One block for each compound: values may come before it.

Legend:
[1] = Inhibitory activity towards group 2 metabotropic glutamate receptor by displacement of ACPD-sensitive [3H]- glutamate in rat forebrain membrane; type: cell membranes
[2] = molecular target: Glutamate receptor ionotropic, AMPA (Rattus norvegicus, UniProt P19490+P19491+P19492+P19493); test: Binding affinity against Ionotropic glutamate receptor using [3H]-AMPA displacement from rat forebrain preparations
[3] = molecular target: Glutamate receptor ionotropic, kainate; test: Binding affinity against Ionotropic glutamate receptor using [3H]-Kainate displacement from rat forebrain preparations
[4] = molecular target: Glutamate receptor ionotropic, kainate 3 (Rattus norvegicus, UniProt P42264); test: Binding affinity against Ionotropic glutamate receptor using ACPD sensitive [3H]- glutamate displacement from rat forebrain preparations
Glutamate receptor ionotropic, kainate 3, sequence (P42264 whole entry): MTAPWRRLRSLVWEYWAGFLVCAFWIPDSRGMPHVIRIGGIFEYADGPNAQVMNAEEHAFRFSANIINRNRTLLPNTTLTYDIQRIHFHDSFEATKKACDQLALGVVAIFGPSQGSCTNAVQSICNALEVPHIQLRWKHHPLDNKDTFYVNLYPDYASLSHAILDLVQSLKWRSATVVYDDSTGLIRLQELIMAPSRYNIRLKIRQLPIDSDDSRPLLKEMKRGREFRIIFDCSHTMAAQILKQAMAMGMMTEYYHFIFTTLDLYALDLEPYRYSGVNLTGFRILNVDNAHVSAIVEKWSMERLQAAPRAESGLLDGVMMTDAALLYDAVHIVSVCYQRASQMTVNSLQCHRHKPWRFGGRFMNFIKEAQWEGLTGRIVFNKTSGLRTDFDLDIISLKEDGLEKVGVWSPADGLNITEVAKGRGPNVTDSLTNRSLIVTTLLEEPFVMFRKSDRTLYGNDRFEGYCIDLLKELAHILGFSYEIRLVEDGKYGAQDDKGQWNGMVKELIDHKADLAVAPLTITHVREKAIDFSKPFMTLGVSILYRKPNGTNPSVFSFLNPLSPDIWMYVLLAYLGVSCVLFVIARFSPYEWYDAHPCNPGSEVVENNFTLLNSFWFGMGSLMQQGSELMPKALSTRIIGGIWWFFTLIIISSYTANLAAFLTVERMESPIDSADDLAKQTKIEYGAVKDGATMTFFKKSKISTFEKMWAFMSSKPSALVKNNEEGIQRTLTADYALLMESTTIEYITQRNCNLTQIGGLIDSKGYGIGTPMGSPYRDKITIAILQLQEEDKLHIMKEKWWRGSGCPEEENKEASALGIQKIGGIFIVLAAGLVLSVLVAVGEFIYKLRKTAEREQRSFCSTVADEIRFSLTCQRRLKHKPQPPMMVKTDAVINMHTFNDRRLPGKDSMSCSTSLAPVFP

[5] = molecular target: Metabotropic glutamate receptor 2 (Homo sapiens, UniProt Q14416); test: Tested for […] in non-neuronal cells (RGT) expressing human Metabotropic glutamate receptor 2 by measuring ACPD (3 uM) induced inhibition of forskolin (15 uM)-stimulated cAMP formation; type: functional, cell-based
[6] = molecular target: Metabotropic glutamate receptor 5 (Homo sapiens, UniProt P41594); test: Tested for […] in non-neuronal cells (RGT) expressing human Metabotropic glutamate receptor 5 by measuring ACPD (100 uM)-stimulated phosphoinositide hydrolysis; type: functional, cell-based
Metabotropic glutamate receptor 5, sequence (P41594 whole entry): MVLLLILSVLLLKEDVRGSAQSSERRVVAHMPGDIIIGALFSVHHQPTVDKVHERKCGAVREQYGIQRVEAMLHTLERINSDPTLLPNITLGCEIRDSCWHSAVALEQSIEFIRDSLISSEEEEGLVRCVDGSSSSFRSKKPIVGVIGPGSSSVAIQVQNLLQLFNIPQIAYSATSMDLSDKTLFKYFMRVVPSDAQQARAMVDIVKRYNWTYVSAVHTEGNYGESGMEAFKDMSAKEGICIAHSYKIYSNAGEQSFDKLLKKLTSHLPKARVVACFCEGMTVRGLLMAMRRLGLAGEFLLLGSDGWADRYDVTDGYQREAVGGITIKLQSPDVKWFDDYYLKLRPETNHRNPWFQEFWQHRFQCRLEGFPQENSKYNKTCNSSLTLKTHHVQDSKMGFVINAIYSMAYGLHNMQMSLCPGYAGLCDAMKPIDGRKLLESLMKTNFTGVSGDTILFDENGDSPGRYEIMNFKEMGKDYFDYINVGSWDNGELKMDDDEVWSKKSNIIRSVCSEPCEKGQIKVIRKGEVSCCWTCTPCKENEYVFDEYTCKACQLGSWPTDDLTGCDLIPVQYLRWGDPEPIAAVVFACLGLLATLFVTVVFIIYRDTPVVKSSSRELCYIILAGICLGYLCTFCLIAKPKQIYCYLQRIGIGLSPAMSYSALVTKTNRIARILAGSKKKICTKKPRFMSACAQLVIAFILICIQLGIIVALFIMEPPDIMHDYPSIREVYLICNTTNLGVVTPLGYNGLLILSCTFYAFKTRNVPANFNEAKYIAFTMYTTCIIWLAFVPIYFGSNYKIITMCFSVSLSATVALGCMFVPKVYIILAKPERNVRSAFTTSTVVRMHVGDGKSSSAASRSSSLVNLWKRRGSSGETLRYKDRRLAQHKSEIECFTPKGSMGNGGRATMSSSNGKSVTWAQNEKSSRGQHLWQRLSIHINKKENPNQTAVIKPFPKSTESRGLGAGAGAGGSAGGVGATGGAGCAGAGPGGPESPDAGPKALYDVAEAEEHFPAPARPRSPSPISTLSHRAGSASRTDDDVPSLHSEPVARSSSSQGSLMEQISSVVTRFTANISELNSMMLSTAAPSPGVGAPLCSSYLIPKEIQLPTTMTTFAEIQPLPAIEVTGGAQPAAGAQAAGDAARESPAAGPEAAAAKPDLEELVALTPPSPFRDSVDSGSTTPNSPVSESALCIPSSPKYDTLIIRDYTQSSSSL

[7] = molecular target: Metabotropic glutamate receptor 8 (Homo sapiens, UniProt O00222); test: Tested for […] in non-neuronal cells (RGT) expressing human Metabotropic glutamate receptor 8 by measuring L-AP4 (0.3 uM of forskolin) (15 uM)-stimulated cAMP formation; type: functional, cell-based
[8] = molecular target: Metabotropic glutamate receptor 3 (Homo sapiens, UniProt Q14832); test: Tested for […] in non-neuronal cells (RGT) expressing human Metabotropic glutamate receptor 3 by measuring ACPD (3 uM) induced inhibition of forskolin (15 uM)-stimulated cAMP formation; type: functional, cell-based
Metabotropic glutamate receptor 3, sequence (Q14832 whole entry): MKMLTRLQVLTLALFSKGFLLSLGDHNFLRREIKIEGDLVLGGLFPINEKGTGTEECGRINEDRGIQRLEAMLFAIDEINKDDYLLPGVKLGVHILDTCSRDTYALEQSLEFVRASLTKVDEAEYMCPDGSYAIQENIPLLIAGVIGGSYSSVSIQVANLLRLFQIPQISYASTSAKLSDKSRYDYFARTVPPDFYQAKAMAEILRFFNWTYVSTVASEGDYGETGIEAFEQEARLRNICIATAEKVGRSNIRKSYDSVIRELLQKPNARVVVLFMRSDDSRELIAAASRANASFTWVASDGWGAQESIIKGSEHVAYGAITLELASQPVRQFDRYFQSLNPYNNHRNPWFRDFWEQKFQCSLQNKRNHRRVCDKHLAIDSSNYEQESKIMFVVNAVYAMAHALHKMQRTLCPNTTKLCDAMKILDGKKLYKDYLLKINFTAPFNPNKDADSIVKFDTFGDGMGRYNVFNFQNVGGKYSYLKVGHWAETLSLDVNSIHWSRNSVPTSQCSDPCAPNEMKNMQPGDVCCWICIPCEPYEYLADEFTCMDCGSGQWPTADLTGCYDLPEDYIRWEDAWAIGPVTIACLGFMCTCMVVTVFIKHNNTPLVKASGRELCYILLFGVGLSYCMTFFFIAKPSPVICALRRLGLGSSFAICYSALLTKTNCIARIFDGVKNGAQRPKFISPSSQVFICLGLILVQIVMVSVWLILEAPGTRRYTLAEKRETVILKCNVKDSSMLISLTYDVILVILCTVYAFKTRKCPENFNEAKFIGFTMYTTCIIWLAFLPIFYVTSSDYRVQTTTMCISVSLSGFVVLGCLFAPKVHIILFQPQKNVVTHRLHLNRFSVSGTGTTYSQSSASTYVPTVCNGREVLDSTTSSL

[9] = molecular target: Metabotropic glutamate receptor 4 (Homo sapiens, UniProt Q14833); test: Tested for […] in non-neuronal cells (RGT) expressing human Metabotropic glutamate receptor 4 by measuring L-AP4 (3 uM) induced inhibition of forskolin (15 uM)-stimulated cAMP formation; type: functional, cell-based
Metabotropic glutamate receptor 4, sequence (Q14833 whole entry): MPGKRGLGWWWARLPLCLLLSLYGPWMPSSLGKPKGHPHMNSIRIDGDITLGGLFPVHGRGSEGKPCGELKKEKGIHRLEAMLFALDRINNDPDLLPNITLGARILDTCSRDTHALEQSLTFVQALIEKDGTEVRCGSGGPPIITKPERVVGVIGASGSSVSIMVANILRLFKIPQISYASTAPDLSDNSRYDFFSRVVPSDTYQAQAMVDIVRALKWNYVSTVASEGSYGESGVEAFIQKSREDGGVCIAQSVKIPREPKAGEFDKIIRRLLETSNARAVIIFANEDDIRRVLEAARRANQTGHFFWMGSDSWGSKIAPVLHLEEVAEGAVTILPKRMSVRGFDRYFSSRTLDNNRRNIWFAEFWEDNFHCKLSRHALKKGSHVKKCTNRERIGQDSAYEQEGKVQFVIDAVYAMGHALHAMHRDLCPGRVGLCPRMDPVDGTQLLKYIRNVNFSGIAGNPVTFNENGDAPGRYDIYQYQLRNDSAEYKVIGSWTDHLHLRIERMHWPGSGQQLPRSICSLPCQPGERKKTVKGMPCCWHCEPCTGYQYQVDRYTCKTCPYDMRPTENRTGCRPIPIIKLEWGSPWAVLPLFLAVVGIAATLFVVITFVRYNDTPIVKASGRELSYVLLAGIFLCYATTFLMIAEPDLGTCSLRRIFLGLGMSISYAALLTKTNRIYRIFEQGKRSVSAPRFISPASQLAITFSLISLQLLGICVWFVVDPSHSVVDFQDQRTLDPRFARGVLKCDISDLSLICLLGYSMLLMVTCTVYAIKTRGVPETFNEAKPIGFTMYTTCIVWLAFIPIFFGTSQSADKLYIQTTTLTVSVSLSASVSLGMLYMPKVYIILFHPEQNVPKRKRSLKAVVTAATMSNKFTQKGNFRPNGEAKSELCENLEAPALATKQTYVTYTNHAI

[10] = molecular target: Metabotropic glutamate receptor 7 (Homo sapiens, UniProt Q14831); test: Tested for […] in non-neuronal cells (RGT) expressing human mGlu7a receptor by measuring L-AP4 (1000 uM of forskolin (15 uM)-stimulated cAMP formation; type: functional, cell-based
Metabotropic glutamate receptor 7, sequence (Q14831 whole entry): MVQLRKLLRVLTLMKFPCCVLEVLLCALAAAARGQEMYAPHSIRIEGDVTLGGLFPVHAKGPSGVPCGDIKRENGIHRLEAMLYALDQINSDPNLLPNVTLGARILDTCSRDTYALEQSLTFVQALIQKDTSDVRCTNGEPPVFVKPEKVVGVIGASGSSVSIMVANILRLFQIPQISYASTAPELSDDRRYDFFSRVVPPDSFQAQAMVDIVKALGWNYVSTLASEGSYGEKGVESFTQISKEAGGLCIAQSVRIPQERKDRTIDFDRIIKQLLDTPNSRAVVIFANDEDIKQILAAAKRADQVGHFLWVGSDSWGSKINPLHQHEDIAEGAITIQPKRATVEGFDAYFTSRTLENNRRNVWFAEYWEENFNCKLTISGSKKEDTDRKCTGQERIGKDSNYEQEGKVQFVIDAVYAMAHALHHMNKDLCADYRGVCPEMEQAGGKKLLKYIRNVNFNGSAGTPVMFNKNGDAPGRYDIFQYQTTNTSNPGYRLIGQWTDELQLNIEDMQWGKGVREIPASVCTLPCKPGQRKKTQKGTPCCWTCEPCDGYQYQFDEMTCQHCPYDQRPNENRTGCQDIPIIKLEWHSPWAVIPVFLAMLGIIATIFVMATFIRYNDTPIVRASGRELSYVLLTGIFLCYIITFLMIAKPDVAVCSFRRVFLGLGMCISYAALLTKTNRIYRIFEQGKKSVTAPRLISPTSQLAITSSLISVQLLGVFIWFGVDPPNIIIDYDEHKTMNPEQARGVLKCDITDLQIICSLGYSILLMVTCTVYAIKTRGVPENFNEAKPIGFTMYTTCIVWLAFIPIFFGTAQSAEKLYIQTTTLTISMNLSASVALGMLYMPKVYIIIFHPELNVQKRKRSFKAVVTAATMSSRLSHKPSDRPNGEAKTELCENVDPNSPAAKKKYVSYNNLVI

[11] = molecular target: Metabotropic glutamate receptor 1 (Homo sapiens, UniProt Q13255); test: Tested for […] in non-neuronal cells (RGT) expressing human Metabotropic glutamate receptor 1 by measuring ACPD (100 uM)-stimulated phosphoinositide hydrolysis; type: functional, cell-based

IC50 [1]: 9.28 µM
Structure (SMILES): COc1cccc(C[C@@H](C[C@H](N)C(=O)O)C(=O)O)c1

IC50 [1]: 2.49 µM
Structure (SMILES): N[C@@H](C[C@H](CCCCCc1ccccc1)C(=O)O)C(=O)O

IC50 [1]: > 100 µM
Structure (SMILES): N[C@@H](C[C@@H](CCCCc1ccccc1)C(=O)O)C(=O)O

IC50 [1]: 3.33 µM
Structure (SMILES): N[C@@H](C[C@H](Cc1ccc2ccccc2c1)C(=O)O)C(=O)O

IC50 [1]: 3.4 µM
Structure (SMILES): N[C@@H](C[C@H](CCCCC(c1ccccc1)c1ccccc1)C(=O)O)C(=O)O

IC50 [1]: 21.1 µM
Structure (SMILES): N[C@@H](C[C@@H](CCCc1ccccc1)C(=O)O)C(=O)O

IC50 [1]: 4.6 µM
Structure (SMILES): Cc1ccc(C[C@@H](C[C@H](N)C(=O)O)C(=O)O)cc1

IC50 [2]: 14.5 µM | IC50 [3]: 39.3 µM | IC50 [4]: 1.16 µM
Structure (SMILES): N[C@@H](C[C@H](CCC(c1ccccc1)c1ccccc1)C(=O)O)C(=O)O

IC50 [2]: 34 µM | IC50 [3]: 9.2 µM | IC50 [1]: 1.84 µM | IC50 [4]: 1.84 µM
Structure (SMILES): N[C@@H](C[C@H](CCCc1ccccc1)C(=O)O)C(=O)O

IC50 [1]: 3.16 µM
Structure (SMILES): N[C@@H](C[C@H](Cc1ccc(C(F)(F)F)cc1)C(=O)O)C(=O)O

IC50 [1]: 1.4 µM
Structure (SMILES): N[C@@H](C[C@H](CC1CCC(c2ccccc2)(c2ccccc2)CC1)C(=O)O)C(=O)O

IC50 [1]: 3.2 µM
Structure (SMILES): N[C@@H](C[C@H](CC1CCC(c2ccccc2)CC1)C(=O)O)C(=O)O (some centres not stated)

IC50 [1]: 4.69 µM
Structure (SMILES): N[C@@H](C[C@H](CCCCc1ccccc1)C(=O)O)C(=O)O

IC50 [2]: > 100 µM | IC50 [5]: 50 µM | IC50 [6]: > 300 µM | IC50 [7]: > 300 µM | IC50 [8]: 30 µM | IC50 [9]: > 300 µM | IC50 [10]: > 300 µM | IC50 [11]: > 300 µM
Structure (SMILES): N[C@@H](C[C@H](CCCC(c1ccccc1)c1ccccc1)C(=O)O)C(=O)O

IC50 [2]: > 100 µM | IC50 [5]: 18 µM | IC50 [3]: > 100 µM | IC50 [6]: > 300 µM | IC50 [7]: > 300 µM | IC50 [8]: 6.1 µM | IC50 [9]: > 300 µM | IC50 [10]: > 300 µM | IC50 [11]: > 300 µM | IC50 [4]: 0.38 µM
Structure (SMILES): N[C@@H](C[C@H](CC(c1ccccc1)c1ccccc1)C(=O)O)C(=O)O

IC50 [1]: 8.99 µM
Structure (SMILES): N[C@@H](C[C@H](Cc1ccccc1)C(=O)O)C(=O)O

IC50 [1]: 4.65 µM
Structure (SMILES): N[C@@H](C[C@H](CCc1ccccc1)C(=O)O)C(=O)O

IC50 [1]: > 100 µM
Structure (SMILES): N[C@@H](C[C@@H](Cc1ccc(C(F)(F)F)cc1)C(=O)O)C(=O)O (single isomer, unassigned)

IC50 [1]: 8.82 µM
Structure (SMILES): N[C@@H](C[C@@H](Cc1ccc2ccccc2c1)C(=O)O)C(=O)O (single isomer, unassigned)

IC50 [1]: 7.85 µM
Structure (SMILES): Cc1ccc(C[C@H](C[C@H](N)C(=O)O)C(=O)O)cc1 (single isomer, unassigned)

IC50 [1]: 14.5 µM
Structure (SMILES): N[C@@H](C[C@@H](CCc1ccccc1)C(=O)O)C(=O)O (single isomer, unassigned)
